# Measurements: patent US8829039B2, “Dihydroindolinone derivatives” (Shanghai Institute of Pharmaceutical Industry, priority 2008, dated 2014)
# Key:
# [1] = system: Human cervical cancer cell Hela; experiment: Anti-tumor activity assay (MTT), Hela; assay type: cell-based; conditions: 48 hrs, samples freshly prepared with DMSO, read-out: Inhibition rate; for inhibition at 0.1 µg/mL: final concentration 0.1 μg/mL; for inhibition at 1 µg/mL: final concentration 1 μg/mL; for inhibition at 10 µg/mL: final concentration 10 μg/mL
# Method: (§1) These tests were carried out using conventional operations in the art. Specifically, the following materials and methods were employed:
# (§2) Human cervical cancer cell Hela, human liver cancer cell SMMC-7721, human lung cancer cell A549, poorly differentiated human gastric adenocarcinoma cell BGC-823, human breast cancer cell MDA-MB-231.
# (§3) To a bottle containing exponential growth phase cells in good condition, 0.25% trypsin solution was added. […] The cell suspension was seeded in a 96-well plate with an amount of 100 μL/well, incubated in a CO2 incubator for 24 hrs. 20 μL/well of tested compounds were added, followed by […], of 10% serum medium, and incubated for 48 hrs. 20 μL/well of MTT (5 mg/mL) was added to the 96-well plate, and the cells were incubated for 4 hrs in the incubator. After removing the supernatant, 150 μL/well of DMSO was added, and the cells were shaked in a horizontal swing bed for 10 minutes. Optical density value (OD value) of each well was measured with an ELISA analyzer at 490 nm, and cell inhibition rate was calculated. The corresponding solvent was used as negative control, and paclitaxel was used as positive control.
# [2] = system: human liver cancer cell SMMC-7721; experiment: Anti-tumor activity assay (MTT), SMMC-7721; assay type: cell-based; conditions: 48 hrs, samples stored at −20° C. for one week, read-out: Inhibition rate; for inhibition at 0.1 µg/mL: final concentration 0.1 μg/mL; for inhibition at 1 µg/mL: final concentration 1 μg/mL; for inhibition at 10 µg/mL: final concentration 10 μg/mL
# Method: as §1, §2, §3
# [3] = system: poorly differentiated human gastric adenocarcinoma cell BGC-823; experiment: Anti-tumor activity assay (MTT), BGC-823; assay type: cell-based; conditions: 48 hrs, samples stored at −20° C. for one week, read-out: Inhibition rate; for inhibition at 0.1 µg/mL: final concentration 0.1 μg/mL; for inhibition at 1 µg/mL: final concentration 1 μg/mL; for inhibition at 10 µg/mL: final concentration 10 μg/mL
# Method: as §1, §2, §3
# [4] = system: human lung cancer cell A549; experiment: Anti-tumor activity assay (MTT), A549; assay type: cell-based; conditions: 48 hrs, samples stored at −20° C. for one week, read-out: Inhibition rate; for inhibition at 0.1 µg/mL: final concentration 0.1 μg/mL; for inhibition at 1 µg/mL: final concentration 1 μg/mL; for inhibition at 10 µg/mL: final concentration 10 μg/mL
# Method: as §1, §2, §3
# [5] = system: human breast cancer cell MDA-MB-231; experiment: Anti-tumor activity assay (MTT), MDA-MB-231; assay type: cell-based; conditions: 48 hrs, samples stored at −20° C. for one week, read-out: Inhibition rate; for inhibition at 0.1 µg/mL: final concentration 0.1 μg/mL; for inhibition at 1 µg/mL: final concentration 1 μg/mL; for inhibition at 10 µg/mL: final concentration 10 μg/mL
# Method: as §1, §2, §3
# Lung cancer cell H460 = experiment: Inhibition of tumor cell proliferation in vitro (MTT), H460; assay type: cell-based; conditions: Homo sapiens, NCI-H460, 48 hrs, read-out: Growth inhibition in vitro IC50
# Method: (§4) The activity assay of the compounds of the invention was carried out through common methods in the art. Commercially available Sunitinib was used as positive control, and lung cancer cell H460, colon cancer cell COLO205 and HT29, breast cancer cell A435 were used as exemplary tumor cells. The tested compounds were prepared by the methods disclosed in the Examples above.
# (§5) A certain amount (100 μL/well, 0.5−1×10^4 cells/mL) of lung cancer cell H460, colon cancer cell COLO205, and breast cancer cell A435, etc. in logarithmic growth phase were seeded in a 96-well plate, and incubated in an incubator for 24 hrs at 37° C. and 5% CO2. Afterwards, tested compounds and positive control (20 μL/wells) were added, followed by 80 µL of 10% serum medium, and then the tumor cells were incubated for further 48 hrs at 37° C. and 5% CO2. Afterwards, MTT (5 mg/mL) was added to the 96-well plates (20 μL/well), and the cells were incubated for another 4 h. After removing the supernatant, the cells were dissolved with DMSO (150 μL/well) and measured with a microplate reader at 490 nm.
# [6] = system: colon cancer cell COLO205; experiment: Inhibition of tumor cell proliferation in vitro (MTT), COLO205; assay type: cell-based; conditions: Homo sapiens, COLO 205, 48 hrs, read-out: Growth inhibition in vitro IC50
# Method: as §4, §5
# breast cancer cell A435 = experiment: Inhibition of tumor cell proliferation in vitro (MTT), A435; assay type: cell-based; conditions: 48 hrs, read-out: Growth inhibition in vitro IC50
# Method: as §4, §5
# [7] = system: human colon cancer HT-29 cells transplanted in nude mice; experiment: Growth inhibition of human cancer HT-29 cells transplanted in nude mice; assay type: in vivo; conditions: for Body weight d0 / Body weight d21: nude mice with HT-29 tumor; for Body weight d0: d0, time of administration in separate cages; for Body weight d0 / TV d0: 30 mg/kg group; for Body weight d21 / T/C (%) / RTV / TV d21: 30 mg/kg intragastrically once a day for 21 days; for T/C (%): relative tumor proliferation rate TRTV/CRTV; for RTV: relative tumor volume TVt/TV0; for TV d0: tumor volume at d0, time of administration in separate cages; for TV d21: tumor volume at d21
# Method: A piece of tumor tissue in vigorous growth phase was obtained and cut into the size of about 1.5 mm^3, and subcutaneously inoculated into the right axillary region of nude mice aseptically. Diameters of transplanted tumors in nude mice were measured with a vernier caliper. After tumors grew to 100˜300 mm^3, the animals were randomly divided into 6 groups: model control group, Sunitinib group (30 mg/kg), Compound 1 group (30 mg/kg), Compound 2 group (30 mg/kg), Compound 3 group (30 mg/kg), Compound 4 group (30 mg/kg). […] Meanwhile, the negative control group was administered equivalent amount of sterile saline. The dynamic observation of antitumor effects of compounds 1-4 and Sunitinib was performed by measuring tumor diameters. […] The general behavior of nude mice was observed and recorded daily. (1) Tumor volume (TV), calculated by the equation: […] wherein a, b represent length and width, respectively. […] RTV=TVt/TV0 wherein TV0 represents the tumor volume at the beginning of administration in separated cages (ie. d0), TVt represents the tumor volume of each measurement. […] T/C %=(TRTV/CRTV)×100% TRTV: RTV of positive control group and each test compound group. CRTV: RTV of model control group.
# Fibroblast NIH/3T3 = experiment: Inhibition of fibroblast NIH/3T3 proliferation (MTT); assay type: cell-based; conditions: Mus musculus, NIH3T3, 48 h, read-out: Inhibition of NIH/3T3 cell proliferation in vitro IC50
# Excerpt: The method commonly used at present for studying fibroblast proliferation associated diseases, i.e., for studying tissue and organ fibrosis, is measuring effects of test compounds on NIH/3T3 cell proliferation (Gao Z. M., Wan K., Effect of inhibition of NIH/3T3 cell proliferation by Cantharidin on prevention and treatment of organ and tissue fibrosis. Chinese Journal of Clinical Rehabilitation, 2004 (2). Tao Y. Y., Wang X. L., Effects of Salvianolic Acid-B on TGF-β1/ERK Signaling Transduction in NIH/3T3 Fibroblast. Journal of Capital Medical University, 2007 (2)).
# Fibroblast NIH/3T3 in logarithmic growth phase was seeded in a 96-well plate, by a certain number of cells (100 μL/well, 0.5−1×10^4 cells/mL). After incubating for 24 h, the screened samples (20 μl/well) were added (directly added after cell suspension was seeded in the plate), incubated for further 48 h at 37° C. and 5% CO2. Afterwards, MTT (5 mg/mL) was added to the 96-well plate (20 μL/well). The cells were incubated for another 4 h, and then dissolved with DMSO (150 μL/well) and measured with a microplate reader at 490 nm. The inhibition rate and IC50 were calculated.
IC50 (Lung cancer cell H460) [nM],IC50 [6] [nM],IC50 (breast cancer cell A435) [nM],Structure (SMILES),inhibition at 0.1 µg/mL [1] [%],inhibition at 1 µg/mL [1] [%],inhibition at 10 µg/mL [1] [%],inhibition at 0.1 µg/mL [2] [%],inhibition at 1 µg/mL [2] [%],inhibition at 10 µg/mL [2] [%],inhibition at 0.1 µg/mL [3] [%],inhibition at 1 µg/mL [3] [%],inhibition at 10 µg/mL [3] [%],inhibition at 0.1 µg/mL [4] [%],inhibition at 1 µg/mL [4] [%],inhibition at 10 µg/mL [4] [%],inhibition at 0.1 µg/mL [5] [%],inhibition at 1 µg/mL [5] [%],inhibition at 10 µg/mL [5] [%],Body weight d0 [7] [g],Body weight d21 [7] [g],further results
61,78,63,"CCN1CCCC1CNC(=O)c1c(C)[nH]c(/C=C2\C(=O)Nc3ccc(F)cc32)c1C (centres unmarked) [Compound 1, N-[(1-ethylpyrrolidin-2-yl)methyl]-5-(5-fluoro-2-oxo-1,2-dihydroindole-3-methylene)-2,4-dimethyl-1H-pyrrole-3-formamide]",4.69,32.5,97.4,-21.2,-0.47,88.5,14.8,20,93.9,18.6,31.1,99.3,-8.3,6.9,92.2,20.2 ± 1.9,21.5 ± 1.3,growth inhibition of human colon cancer HT-29 cells transplanted in nude mice (in words) ([7]; 30 mg/kg continuously administered intragastrically): strongest inhibition of tumor proliferation; T/C (%) [7]: 10.1%; RTV [7]: 0.9 ± 0.2; TV d0 [7]: 194.7 ± 57.7 mm^3; TV d21 [7]: 163.7 ± 33.6 mm^3; IC50 (Fibroblast NIH/3T3): 205 nM; melting point: 232 to 236 °C
140,110,68,Cc1[nH]c(/C=C2\C(=O)Nc3ccc(F)cc32)c(C)c1C(=O)NCC1CCCCN1 (centres unmarked) [Compound 3],-3.2,50.8,98,-18.6,4,62.1,-5.42,17,78.8,11.9,22.7,94.2,-5.4,0.5,88.6,20.6 ± 2.0,20.8 ± 2.3,T/C (%) [7]: 15.0%; RTV [7]: 1.3 ± 0.7; TV d0 [7]: 196.7 ± 62.7 mm^3; TV d21 [7]: 290.4 ± 238.4 mm^3; IC50 (Fibroblast NIH/3T3): 530 nM; melting point: 263 to 266 °C
